Drawing on PubChem BioAssay (NCI), this text covers TGI and GI50 for 18 compounds.

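Where inhibition never reached the appropriate level, the endpoint shown equals the highest concentration tested. Otherwise, values were interpolated linearly from a five-concentration, 48-hour dose response in 96-well plates. GI50 = concentration required for 50% inhibition of growth. TGI denotes the concentration required for complete inhibition of growth.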

Common to all, as to experiment: growth of human tumour cells (NCI), 48 h
In assay [1] the test system is DMS 114 small cell lung.
For assay [2], the system named is LXFL 529 NSCLC.
Assay [3] concerns RXF-631 renal.
Assay [4] deals with DLD-1 colon.
Assay [5] concerns KM20L2 colon.
For assay [6], the system named is XF 498 CNS.
In assay [7] the test system is M19-MEL melanoma.
Assay [8] has as its system HOP-18 NSCLC.
In assay [9] the test system is MDA-N.

As for `COc1cc(/C=C/C(=N\NC(=O)c2ccccc2)c2sc(Nc3ccc(Cl)c(Cl)c3)nc2C)ccc1O`, the TGI is 71.5 µM in assay [1]; over 100 µM in assay [2]; 72.5 µM in assay [3]; over 100 µM in [4]; over 100 µM in assay [5]; 91.3 µM in assay [6]. In addition, the TGI is over 100 µM in [7] and 79.3 µM in assay [8].

With `CC(O)CN1C(=O)NC(Cc2ccccc2)C1=O` (stereo not given), the TGI in assay [1], in assay [2], in assay [4], in [5], in [6] and in assay [8] was over 100 µM throughout.

In the case of `NS(=O)(=O)c1ccc(NC(=O)c2cccc3c(=O)c4ccccc4[nH]c23)cc1`, the TGI in assay [1], in assay [2], in [4], in assay [5], in [6] and in [7] was over 100 µM throughout. This compound had a TGI in assay [8] of over 100 µM.

On to `COc1cc(/C=C\c2ccc(O)cc2)cc(OC)c1OC`, for which the TGI in assay [2], in [4], in assay [5], in [6], in [7] and in [8] was over 100 µM in each case.

Take `Clc1cc(Cl)c2c(Cl)cc(Cl)c3c2c1N=S=N3`: the TGI is over 100 µM in assay [1]; over 100 µM in assay [2]; over 100 µM in [4]; over 100 µM in assay [5]; 49 µM in assay [6]; over 100 µM in [7]. In [8], the TGI was over 100 µM.

Consider `CCCCCC(C(O)C#N)C(O)(C(F)(F)F)C(F)(F)F` (stereo not given), for which, in assay [9], the TGI was over 10 µM.

`CC1(C)OC(=O)C=C([O-])O1.CC1(C)OC(=O)C=C([O-])O1.O=c1c(O)c(-c2ccc([O-])cc2[O-])oc2cc(O)cc(O)c12.[Ti+4]`: the GI50 in [1] is 64.7 µM; in assay [2], over 100 µM; in assay [4], over 100 µM; in assay [5] it was over 100 µM; in assay [7], 92.1 µM; in assay [8], 25 µM. For the same compound, the TGI in assay [1], in assay [2], in [4], in assay [5], in assay [7] and in [8] was over 100 µM each time.

Take `Cc1c(-c2nc(N)nc(C3CC3)c2C)nc(N)nc1C1CC1`: the TGI in assay [9] was over 100 µM.

On to `CC1(C)CCc2cc3c(cc2O1)OCCC3=O`, for which the TGI in assay [1], in [2], in [3], in [4], in assay [5] and in [6] was over 100 µM in each case. The TGI in assay [7] and in [8] was over 100 µM in each case.

As for `Cc1ccc([N+](=O)[O-])c2c(NCCCN(C)C)ccnc12`, the figures for the TGI in assay [9] and in [5] were 98.4 µM and 75.2 µM, respectively.

Take `O=C(Nc1ccc(S(=O)(=O)N[C@@H](C(=O)O)c2ccccc2)cc1)c1ccc(F)cc1`: the TGI in assay [2], in [4], in assay [5], in [6], in assay [7] and in [8] was over 100 µM in each case.

For `CN(C)C(=S)/N=c1\ss/c(=N\S(=O)(=O)c2ccccc2)n1-c1ccccc1`, the TGI in assay [1] is 50.3 µM; in [3], over 100 µM; in assay [4], over 100 µM; in [6], 79.4 µM; in assay [7], over 100 µM; in [8], over 100 µM.

`CCOc1cccc2nc3cccc(C(=O)NCCN(C)C)c3nc12`: the TGI in assay [1] is 3.7 µM; in [2], over 21.9 µM; in assay [3], 10.5 µM; in [4], 7.66 µM; in assay [5] it was 5.48 µM; in assay [6], 3.52 µM. Further, the TGI in assay [7] is 2.83 µM; in assay [8], over 38.4 µM.

As for `CC(=O)[CH-]C(C)=O.CC(=O)[CH-]C(C)=O.N=CC=N.[Sn+2]`, the GI50 in assay [9] is 1.68 µM; in assay [1] it was 2.32 µM; in [2] it was 1.32 µM; in assay [4] it was 1.71 µM; in assay [5], 8.54 µM; in assay [6] it was 6.49 µM. For the same compound, the GI50 in assay [8] was 11.5 µM. The TGI in assay [9] was found to be 3.69 µM; in assay [1], 5.17 µM; in assay [2], 2.6 µM; in [4], 3.26 µM; in assay [5], 20.9 µM; in assay [6] it was 16.5 µM. The same compound came in with a TGI in assay [8] of 23.7 µM.

As for `N#Cc1c(N)c(C(=O)O)nn(-c2cccc(C(F)(F)F)c2)c1=O`, the TGI in [2], in assay [3], in assay [4], in assay [5], in assay [6] and in [7] was over 100 µM throughout. In [8], this compound returned a TGI of over 100 µM.

`CC1CCCC(C(=O)/C(=C/c2cccc(Cl)c2)C(=O)C(=O)O)C1` (stereo not given): the TGI in assay [1] was 45.7 µM; in assay [2], 43 µM; in [4], 40.3 µM; in assay [5], 90 µM; in assay [7], 32.7 µM; in [8] it was over 100 µM.

Turning to `COc1ccc(C(=O)C(C(=O)CCC(=O)Nc2cccc(C(F)(F)F)c2)c2ccccc2)cc1` (stereo not given), the TGI in [1], in assay [2], in assay [4], in [5], in assay [6] and in [7] was over 100 µM throughout. This compound registered a TGI in assay [8] of over 100 µM.

Regarding `CC(=O)c1c(C)n([O-])c2cc(C)c(C)cc2[n+]1=O`, the TGI in assay [1], in assay [2], in assay [3], in [4], in [5] and in assay [6] was over 100 µM throughout. The TGI in [7] and in assay [8] was over 100 µM throughout.
